Tested on: truies
Assay: Synchronisation of parturition in sows: interval between injection of the active principle and farrowing
Assay type: in vivo
Details: single i.m. injection on day 113 of gestation (Ho = 9 h); for intervalle de temps entre l'injection du principe actif et la mise bas: 20 à 30 H (number of animals) / intervalle de temps entre l'injection du principe actif et la mise bas: 30 à 36 H (number of animals) / intervalle de temps entre l'injection du principe actif et la mise bas: - 20 H (number of animals): produit A 2 mg/kg (n = 24); for intervalle de temps entre l'injection du principe actif et la mise bas: 20 à 30 H (number of animals) / intervalle de temps entre l'injection du principe actif et la mise bas: 20 à 30 H (% des animaux): farrowing 20 to 30 h after injection; for intervalle de temps entre l'injection du principe actif et la mise bas: 30 à 36 H (number of animals) / intervalle de temps entre l'injection du principe actif et la mise bas: 30 à 36 H (% des animaux): farrowing 30 to 36 h after injection; for intervalle de temps entre l'injection du principe actif et la mise bas: - 20 H (number of animals) / intervalle de temps entre l'injection du principe actif et la mise bas: - 20 H (% des animaux): farrowing less than 20 h after injection; for intervalle de temps entre l'injection du principe actif et la mise bas: 20 à 30 H (% des animaux) / intervalle de temps entre l'injection du principe actif et la mise bas: 30 à 36 H (% des animaux) / intervalle de temps entre l'injection du principe actif et la mise bas: - 20 H (% des animaux): produit A 2 mg/kg
From the text: L'essai a été réalisé chez des truies. Les truies ont été sélectionnées en fonction des critères suivants : • truies de même origine (même schéma de sélection), • truies de même rang de parturition (3ème), • saillie par le même verrat ou insémination artificielle avec semence de même origine, • nombre de saillies ou d'inséminations identiques, • saillie ou insémination sur première chaleur post-sevrage (intervalle sevrage saillie identique ou très proche), • durée d'allaitement identique.
Les truies sont divisées en 3 lots de n animaux : • un lot témoin ne reçoit aucun produit, • un lot reçoit une injection intra-musculaire de 2 mg/kg de produit A ou 17béta-hydroxy 11béta-(4-diméthylaminophényl) 17alpha-(prop-1-ynyl) estra-4,9-dièn-3-one, le 113ème jour de la gestation, • un lot reçoit une injection intra-musculaire de 175 mcg de cloprosténol sous forme de PLANATE^ R par truie, le 113 ème jour de la gestation.
On a mesuré l'intervalle de temps entre l'injection du principe actif et la mise bas : le tableau suivant résume les résultats obtenus.
1.- Animaux traités (Ho = 9 heures le 113ème jour de gestation.

[1] = cloprosténol 175 mcg per sow (n = 23)

| Structure (SMILES) | intervalle de temps entre l'injection du principe actif et la mise bas: + 36 H (number of animals) (cloprosténol 175 mcg per sow (n = 23), farrowing more than 36 h after injection) | intervalle de temps entre l'injection du principe actif et la mise bas: + 36 H (% des animaux) (cloprosténol 175 mcg per sow, farrowing more than 36 h after injection) [%] | intervalle de temps entre l'injection du principe actif et la mise bas: 20 à 30 H (number of animals) [1] | intervalle de temps entre l'injection du principe actif et la mise bas: 30 à 36 H (number of animals) [1] | intervalle de temps entre l'injection du principe actif et la mise bas: - 20 H (number of animals) [1] | intervalle de temps entre l'injection du principe actif et la mise bas: 20 à 30 H (% des animaux) (cloprosténol 175 mcg per sow) [%] | intervalle de temps entre l'injection du principe actif et la mise bas: 30 à 36 H (% des animaux) (cloprosténol 175 mcg per sow) | intervalle de temps entre l'injection du principe actif et la mise bas: - 20 H (% des animaux) (cloprosténol 175 mcg per sow) |
| --- | --- | --- | --- | --- | --- | --- | --- | --- |
| O=C(O)CCC/C=C\CC1C(O)CC(O)C1/C=C/C(O)COc1cccc(Cl)c1 (centres unmarked) [Cloprosténol, cloprosténol] | 3 | 13 | 18 | 1 | 1 | 78 | 4,5% | 4,5% |
| CC#C[C@]1(O)CC[C@H]2[C@@H]3CCC4=CC(=O)CCC4=C3[C@@H](c3ccc(N(C)C)cc3)C[C@@]21C [Produit A, 17béta-hydroxy 11béta-(4-diméthylaminophényl) 17alpha-(prop-1-ynyl) estra-4,9-dièn-3-one] | – | – | 22 | 1 | 1 | 92 | 4% | 4% |

Source: patent EP0446124A2, “Use of antiprogestomimetics to synchronise parturition in livestock” (ROUSSEL UCLAF, priority 1990, dated 1991)
